Reference: patent US20210269451A1, “PYRIDINYL HETEROCYCLYL COMPOUNDS FOR THE TREATMENT OF AUTOIMMUNE DISEASE” (Hoffmann-La Roche Inc., priority 2018, published 2021)

Columns and labels:
CYP2D6 = target: T1, CYP2D6 (Homo sapiens, UniProt P10635); experiment: CYP inhibition assay in human liver microsome; type: in vitro ADME; settings: human liver microsomes, probe dextromethorphan, dextromethorphan substrate, percentage inhibition <0: not or weak inhibitor, read-out: CYP 2D6 inhibition %@10 μM
T1 construct: tissue BD-Gentest 452117; host or cells: human liver microsomes
Protocol: The compounds would be desirable to have minimal DDI liabilities. Therefore, the effects of compounds of formula (I) or (Ia) on CYP2D6 are determined.
This is a high throughput screening assay used for assessment of reversible inhibition of CYP2D6 activity of test compounds in human liver microsome (HLM) in early discovery stage.
10 mM DMSO stock solutions of test compounds were diluted in DMSO to generate 2 mM intermediate stock solution. 250 nL of intermediate stock solution were transferred in duplicate into 3 separate 384 well microtitre plates (assay-ready plates). A mixture of HLM and each substrate was made up. 45 μL of HLM substrate mix was then transferred to each well of an assay ready plate and mixed. The negative (solvent) and positive control (standard inhibitor for CYP 2D6) were included in each assay ready plate. The assay ready plate was warmed to 37° C. in an incubator over 10 minutes. 5 μL pre-warmed NADPH regenerating system was added to each incubation well to start the reaction. Final incubation volume was 50 μL. The assay plate then was placed back in the 37° C. incubator. After 10 minutes incubation, incubates were quenched by addition of 50 μL 100% acetonitrile containing internal standards (20 ng/mL D3-Dextrorphan). The supernatants were collected for RapidFire/MS/MS analysis.
RapidFire online solid phase extraction/sample injection system (Agilent) coupled with API4000 triple quadrupole mass spectrometer (AB Sciex) were used for sample analysis. The mobile phase composed of acetonitrile and water supplemented with 0.1% formic acid. A C4 solid phase extraction cartridge is used for sample separation. MS detection is achieved in positive ion MRM mode.
Data analysis Peak areas for substrate, metabolite and internal standard are determined using the RapidFire integrator software (version 3.6.12009.12296). Peak area ratios (PAR) of metabolite and internal standard (stable-labelled metabolite) are then calculated. The measurement window for each experiment is then defined:
PAR (0% activity), average PAR for all incubations containing concentrated inhibitor; Par (100% activity), average PAR for all incubations containing no inhibitor (DMSO controls);
% Activity (test inhibitor)=
=[PAR(test inhibitor)-PAR(0% activity)]/[PAR(100% activity)-PAR(0% activity)];
% Inhibition (test inhibitor)=100-% Activity (test inhibitor).

hTLR9 = target: T2, hTLR9 (Homo sapiens, UniProt Q9NR96); experiment: HEK293-Blue-hTLR-9 cells assay; type: cell-based; parameters: host or cells: HEK293-Blue-hTLR-9 (HEK293); settings: HEK293-Blue-hTLR9 cells, ODN2006 stimulation, 20 hrs, SEAP reporter; read-out: HEK/hTLR9 IC50
T2 sequence (Q9NR96 26-1032): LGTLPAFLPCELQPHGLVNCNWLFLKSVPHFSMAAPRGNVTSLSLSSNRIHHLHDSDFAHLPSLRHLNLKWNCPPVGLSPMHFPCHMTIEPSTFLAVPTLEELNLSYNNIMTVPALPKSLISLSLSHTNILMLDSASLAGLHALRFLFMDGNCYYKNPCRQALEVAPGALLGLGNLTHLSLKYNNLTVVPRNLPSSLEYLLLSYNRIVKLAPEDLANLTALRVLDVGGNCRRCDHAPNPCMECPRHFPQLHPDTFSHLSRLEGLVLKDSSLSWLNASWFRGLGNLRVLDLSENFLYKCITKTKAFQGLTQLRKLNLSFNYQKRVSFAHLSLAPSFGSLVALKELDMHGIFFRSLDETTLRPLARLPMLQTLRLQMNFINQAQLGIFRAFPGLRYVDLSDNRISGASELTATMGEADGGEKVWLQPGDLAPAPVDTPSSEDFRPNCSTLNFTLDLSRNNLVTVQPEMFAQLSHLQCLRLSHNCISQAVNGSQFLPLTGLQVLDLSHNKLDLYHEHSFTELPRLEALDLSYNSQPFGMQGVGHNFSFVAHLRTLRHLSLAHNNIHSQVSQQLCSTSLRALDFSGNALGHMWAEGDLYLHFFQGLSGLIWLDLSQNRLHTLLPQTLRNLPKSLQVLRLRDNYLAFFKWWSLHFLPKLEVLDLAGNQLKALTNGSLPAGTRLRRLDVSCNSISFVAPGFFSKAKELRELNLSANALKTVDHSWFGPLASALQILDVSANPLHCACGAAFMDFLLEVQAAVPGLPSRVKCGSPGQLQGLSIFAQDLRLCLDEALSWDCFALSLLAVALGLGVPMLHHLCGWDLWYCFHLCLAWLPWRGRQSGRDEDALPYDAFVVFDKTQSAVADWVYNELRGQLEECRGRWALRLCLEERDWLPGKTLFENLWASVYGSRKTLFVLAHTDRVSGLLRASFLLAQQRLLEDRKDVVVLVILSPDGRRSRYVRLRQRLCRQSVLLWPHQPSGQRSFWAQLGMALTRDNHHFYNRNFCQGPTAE
Protocol: The following tests were carried out in order to determine the activity of the compounds of formula (I) and (Ia) in HEK293-Blue-hTLR-7/8/9 cells assay.
HEK293-Blue-hTLR-9 cells assay:
A stable HEK293-Blue-hTLR-9 cell line was purchased from InvivoGen (Cat. #: hkb-htlr9, San Diego, Calif., USA). These cells were originally designed for studying the stimulation of human TLR9 by monitoring the activation of NE-KB. A SEAP (secreted embryonic alkaline phosphatase) reporter gene was placed under the control of the IFN-β minimal promoter fused to five NE-κB and AP-1-binding sites. The SEAP was induced by activating NE-κB and AP-1 via stimulating HEK-Blue hTLR9 cells with TLR9 ligands. Therefore the reporter expression was declined by TLR9 antagonist under the stimulation of a ligand, such as ODN2006 (Cat. #: tlrl-2006-1, Invivogen, San Diego, Calif., USA), for incubation of 20 hrs. The cell culture supernatant SEAP reporter activity was determined using QUANTI-Blue™ kit (Cat. #: rep-qb1, Invivogen, San Diego, Calif., USA) at a wavelength of 640 nm, a detection medium that turns purple or blue in the presence of alkaline phosphatase.
HEK293-Blue-hTLR9 cells were incubated at a density of 250,000˜450,000 cells/mL in a volume of 170 μL in a 96-well plate in Dulbecco's Modified Eagle's medium (DMEM) containing 4.5 g/L glucose, 50 U/mL penicillin, […], […], 2 mM L-glutamine, 10% (v/v) heat-inactivated fetal bovine serum with addition of 20 μL test compound in a serial dilution in the presence of final DMSO at 1% and 10 μL of 20 uM ODN2006 in above DMEM, perform incubation under 37° C. in a CO2 incubator for 20 hrs. Then 20 μL of the supernatant from each well was incubated with 180 μL Quanti-blue substrate solution at 37° C. for 2 h and the absorbance was read at 620˜655 nm using a spectrophotometer. The signaling pathway that TLR9 activation leads to downstream NE-κB activation has been widely accepted, and therefore similar reporter assay was modified for evaluating TLR9 antagonist.

T1 sequence (P10635 whole entry): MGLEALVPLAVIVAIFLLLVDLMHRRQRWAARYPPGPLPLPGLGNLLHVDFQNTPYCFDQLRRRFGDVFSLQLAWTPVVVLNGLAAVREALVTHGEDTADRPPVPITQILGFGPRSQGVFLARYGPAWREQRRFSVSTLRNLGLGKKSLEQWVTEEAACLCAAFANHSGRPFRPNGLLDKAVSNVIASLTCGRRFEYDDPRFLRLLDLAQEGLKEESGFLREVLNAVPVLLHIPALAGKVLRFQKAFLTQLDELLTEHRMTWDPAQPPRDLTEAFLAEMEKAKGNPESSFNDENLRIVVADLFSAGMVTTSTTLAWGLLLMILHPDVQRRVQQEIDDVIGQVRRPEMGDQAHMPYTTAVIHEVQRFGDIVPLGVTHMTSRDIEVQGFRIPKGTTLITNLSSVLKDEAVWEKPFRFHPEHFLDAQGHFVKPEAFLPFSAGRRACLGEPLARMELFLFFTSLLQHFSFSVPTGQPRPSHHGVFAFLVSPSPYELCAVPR

| inhibition at 10 min, 10 μM (CYP2D6) [%] | IC50 (hTLR9) [µM] | Compound |
| --- | --- | --- |
| -4 | 0.034 | Cc1cc(N2CCC[C@@H](N(C)C[C@H]3CN(c4ccc(C#N)c5ncccc45)C[C@@H](C)O3)C2)cc(CO)n1 [Example 35] |
| 14.5 | 0.041 | Cc1cc(N2CCN(C[C@H]3CN(c4ccc(C#N)c5ncccc45)C[C@@H](C)O3)CC2)cc(N)n1 [Example 40, 5-[(2S,6R)-2-[[4-(2-amino-6-methyl-4-pyridyl)piperazin-1-yl]methyl]-6-methyl-morpholin-4-yl]quinoline-8-carbonitrile] |
| 6 | 0.048 | C[C@@H]1CN(c2ccc(C#N)c3ncccc23)C[C@H](CN2CC3(C2)CN(c2ccnc(C4CC4)c2)CCO3)O1 [Example 3, 5-[(2S,6R)-2-[[8-(2-cyclopropyl-4-pyridyl)-5-oxa-2,8-diazaspiro[3.5]nonan-2-yl]methyl]-6-methyl-morpholin-4-yl]quinoline-8-carbonitrile] |
| 2 | 0.034 | C[C@@H]1CN(c2ccc(C#N)c3ncccc23)C[C@H](CN[C@H]2CCCN(c3ccnc(N)c3)C2)O1 [Example 22] |
| 2 | < 0.032 | C[C@@H]1CN(c2ccc(C#N)c3ncccc23)C[C@H](CN[C@@H]2CCCN(c3ccnc(N)c3)C2)O1 [Example 21, 5-[(2S,6R)-2-[[[(3R)-1-(2-amino-4-pyridyl)-3-piperidyl]amino]methyl]-6-methyl-morpholin-4-yl]quinoline-8-carbonitrile] |
| -9.5 | < 0.032 | Cc1cc(N2CCC[C@@H](NC[C@H]3CN(c4ccc(C#N)c5ncccc45)C[C@@H](C)O3)C2)cc(CO)n1 [Example 24] |
| 17 | < 0.032 | CC(O)c1cc(N2CC3(CN(C[C@H]4CN(c5ccc(C#N)c6ncccc56)C[C@@H](C)O4)C3)C2)ccn1 (stereo partly drawn) [Example 46, 5-[(2S,6R)-2-[[2-[2-(1-hydroxyethyl)-4-pyridyl]-2,6-diazaspiro[3.3]heptan-6-yl]methyl]-6-methyl-morpholin-4-yl]quinoline-8-carbonitrile] |
| 4 | 0.071 | Cc1cc(N2CCC23CN(C[C@H]2CN(c4ccc(C#N)c5ncccc45)C[C@@H](C)O2)C3)ccn1 [Example 15] |
| 0 | 0.039 | Cc1cc(N2CCC[C@H](N(C)C[C@H]3CN(c4ccc(C#N)c5ncccc45)C[C@@H](C)O3)C2)cc(CO)n1 [Example 38] |

The next lines start with the molecule.

| Compound | inhibition at 10 min, 10 μM (CYP2D6) [%] | IC50 (hTLR9) [µM] |
| --- | --- | --- |
| Cc1cc(N2CCN(C[C@H]3CN(c4ccc(C#N)c5ncccc45)C[C@@H](C)O3)CC2)cc(CO)n1 [Example 50] | 10.5 | 0.134 |
| Cc1cc(N2CCC3(CN(C[C@H]4CN(c5ccc(C#N)c6ncccc56)C[C@@H](C)O4)C3)C2)cc(C)n1 [Example 9] | -5 | 0.032 |
| Cc1cc(N2CCOC3(CN(C[C@H]4CN(c5ccc(C#N)c6ncccc56)C[C@@H](C)O4)C3)C2)cc(C)n1 [Example 14] | 19 | < 0.032 |
| C[C@@H]1CN(c2ccc(C#N)c3ncccc23)C[C@H](CN2CC3(C2)CN(c2ccnc(CO)c2)CCO3)O1 [Example 51] | -15.5 | 0.035 |
| Cc1cc(NC2CN(C[C@H]3CN(c4ccc(C#N)c5ncccc45)C[C@@H](C)O3)C2)cc(C)n1 [Example 7] | -21.5 | 0.039 |
| Cc1cc(N(C)C2CN(C[C@H]3CN(c4ccc(C#N)c5ncccc45)C[C@@H](C)O3)C2)cc(C)n1 [Example 11] | -7.5 | 0.04 |
| Cc1cc(N2CC3(CN(C[C@H]4CN(c5ccc(C#N)c6ncccc56)C[C@@H](C)O4)C3)C2)cc(C(C)O)n1 (stereo partly drawn) [Example 44, 5-[(2S,6R)-2-[[2-[2-(1-hydroxyethyl)-6-methyl-4-pyridyl]-2,6-diazaspiro[3.3]heptan-6-yl]methyl]-6-methyl-morpholin-4-yl]quinoline-8-carbonitrile] | 5 | < 0.032 |
| Cc1cc(N2C[C@H]3CN(C[C@H]4CN(c5ccc(C#N)c6ncccc56)C[C@@H](C)O4)C[C@H]3C2)cc(CO)n1 [Example 10] | 3.5 | < 0.032 |
| Cc1cc(N2CC3(CN(C[C@H]4CN(c5ccc(C#N)c6ncccc56)C[C@@H](C)O4)C3)C2)cc(CO)n1 [Example 1, 5-[(2S,6R)-2-[[2-[2-(hydroxymethyl)-6-methyl-4-pyridyl]-2,6-diazaspiro[3.3]heptan-6-yl]methyl]-6-methyl-morpholin-4-yl]quinoline-8-carbonitrile] | 6 | 0.034 |
| Cc1cc(N2CCOC3CN(CC4CN(c5ccc(C#N)c6ncccc56)CC(C)O4)CC32)cc(C)n1 (single isomer, unassigned) [Example 17B] | 5 | < 0.032 |
